Source: patent publication US12479847B2 (DANA-FARBER CANCER INSTITUTE, INC., priority 2019, dated 2025)

Tests used:
[1] = target: T1, panel of 468 kinases (Homo sapiens, UniProt O94768); assay: KINOMEscan (ScanMAX) kinase profiling; assay type: binding; settings: DRAK2; 1 μM; read-out: % control
T1 construct: purchased KINOMEscan (ScanMAX) service
T1 sequence (O94768 1-372): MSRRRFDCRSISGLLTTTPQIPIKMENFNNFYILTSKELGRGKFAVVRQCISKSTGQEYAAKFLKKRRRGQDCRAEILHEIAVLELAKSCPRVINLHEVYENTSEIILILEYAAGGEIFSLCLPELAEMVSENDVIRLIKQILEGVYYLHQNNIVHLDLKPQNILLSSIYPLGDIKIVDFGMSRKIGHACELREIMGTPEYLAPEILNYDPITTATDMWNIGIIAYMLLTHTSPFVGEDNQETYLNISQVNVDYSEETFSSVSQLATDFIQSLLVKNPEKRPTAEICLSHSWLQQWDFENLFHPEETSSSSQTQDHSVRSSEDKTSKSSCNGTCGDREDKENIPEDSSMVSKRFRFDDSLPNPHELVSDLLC
Procedure: (§1) The kinase selectivity of inventive compounds 12, 75, and 77 was evaluated by KINOMEscan®. KINOMEscan® (ScanMAX™) analysis was performed against a near comprehensive panel of 468 kinases. The control percentage (% control) for inventive compounds at 1 μM in DMSO was determined by Equation 1: % control=(inventive compound−positive control)/(negative control−positive control)×100%, Equation 1
(§2) wherein the positive control is a compound with a % control value of 0% relative light units (RLU), and the negative control (i.e., DMSO) has % control value of 100% RLU. The enzyme selectivity in the present invention is defined as follows: inventive compounds are considered active for an enzyme when the observed % control is less than 35% (<35%).

[2] = target: T2, panel of 468 kinases (Homo sapiens, UniProt P00533, L858R); assay: KINOMEscan (ScanMAX) kinase profiling; assay type: binding; settings: EGFR(L858R); 1 μM; read-out: % control
T2 construct: purchased KINOMEscan (ScanMAX) service
Procedure: as §1, §2

[3] = target: T3, panel of 468 kinases (Homo sapiens, UniProt P09769); assay: KINOMEscan (ScanMAX) kinase profiling; assay type: binding; settings: FGR; 1 μM; read-out: % control
T3 construct: purchased KINOMEscan (ScanMAX) service
Procedure: as §1, §2

[4] = target: T4, panel of 468 kinases (Homo sapiens, UniProt P21802); assay: KINOMEscan (ScanMAX) kinase profiling; assay type: binding; settings: FGFR2; 1 μM; read-out: % control
T4 construct: purchased KINOMEscan (ScanMAX) service
Procedure: as §1, §2

[5] = target: T5, panel of 468 kinases (Homo sapiens, UniProt P24941); assay: KINOMEscan (ScanMAX) kinase profiling; assay type: binding; settings: CDK2; 1 μM; read-out: % control
T5 construct: purchased KINOMEscan (ScanMAX) service
Procedure: as §1, §2

[6] = target: T6, panel of 468 kinases (Homo sapiens, UniProt P28482); assay: KINOMEscan (ScanMAX) kinase profiling; assay type: binding; settings: ERK2; 1 μM; read-out: % control
T6 construct: purchased KINOMEscan (ScanMAX) service
Procedure: as §1, §2

[7] = target: T7, panel of 468 kinases (Homo sapiens, UniProt P36888, D835V); assay: KINOMEscan (ScanMAX) kinase profiling; assay type: binding; settings: FLT3(D835V); 1 μM; read-out: % control
T7 construct: purchased KINOMEscan (ScanMAX) service
T7 sequence (P36888 27-993 D835V): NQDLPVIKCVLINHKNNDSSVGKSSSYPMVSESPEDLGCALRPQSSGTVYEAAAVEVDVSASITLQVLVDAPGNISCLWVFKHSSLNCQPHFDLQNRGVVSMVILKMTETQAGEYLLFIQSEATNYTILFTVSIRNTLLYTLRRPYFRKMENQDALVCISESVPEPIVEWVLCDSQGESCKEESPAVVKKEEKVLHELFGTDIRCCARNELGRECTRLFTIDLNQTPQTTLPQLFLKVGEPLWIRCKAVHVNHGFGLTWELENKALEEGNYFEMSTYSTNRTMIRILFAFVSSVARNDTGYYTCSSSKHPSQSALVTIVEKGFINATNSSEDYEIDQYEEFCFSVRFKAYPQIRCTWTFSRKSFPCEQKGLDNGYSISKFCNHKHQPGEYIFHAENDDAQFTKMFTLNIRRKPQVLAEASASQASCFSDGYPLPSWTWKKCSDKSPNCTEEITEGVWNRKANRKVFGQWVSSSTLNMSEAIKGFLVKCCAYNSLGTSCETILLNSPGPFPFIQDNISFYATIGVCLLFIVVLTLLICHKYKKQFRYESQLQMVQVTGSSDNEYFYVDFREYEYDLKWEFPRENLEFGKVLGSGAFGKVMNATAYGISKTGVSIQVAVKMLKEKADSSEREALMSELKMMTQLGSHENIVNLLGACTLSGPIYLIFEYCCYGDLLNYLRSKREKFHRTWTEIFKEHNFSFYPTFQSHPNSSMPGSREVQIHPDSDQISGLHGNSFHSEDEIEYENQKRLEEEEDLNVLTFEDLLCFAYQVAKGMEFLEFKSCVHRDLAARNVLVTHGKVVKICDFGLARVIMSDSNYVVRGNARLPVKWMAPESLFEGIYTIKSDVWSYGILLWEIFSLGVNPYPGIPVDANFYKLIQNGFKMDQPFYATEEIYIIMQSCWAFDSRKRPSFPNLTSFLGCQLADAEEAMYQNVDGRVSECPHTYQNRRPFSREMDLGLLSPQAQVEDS
Procedure: as §1, §2

[8] = target: T8, panel of 468 kinases (Homo sapiens, UniProt Q16659); assay: KINOMEscan (ScanMAX) kinase profiling; assay type: binding; settings: ERK3; 1 μM; read-out: % control
T8 construct: purchased KINOMEscan (ScanMAX) service
Procedure: as §1, §2

[9] = target: T9, panel of 468 kinases (Homo sapiens, UniProt Q9Y3S1); assay: KINOMEscan (ScanMAX) kinase profiling; assay type: binding; settings: WNK2; 1 μM; read-out: % control
T9 construct: purchased KINOMEscan (ScanMAX) service
Procedure: as §1, §2

[10] = target: human LRRK2 kinase (Homo sapiens, UniProt Q5S007); settings: LRRK2, ADP-Glo, ATP 10 μM, 60 minutes at 25° C.
Procedure: Assay kits from Promega™ Corporation were used according to instructions and adapted as outlined herein. […] The kinase reaction was performed with kinase reaction buffer (40 mM Tris base pH 7.4, 20 mM MgCl2, 0.5 mM dithiothreitol), 0.1 mg/ml bovine serum albumin, distilled H2O). […] In brief, the kinase reactions were started by addition of ATP to the kinase reaction mixture. The resulting mixture was incubated for 60 minutes at 25° C., and then stopped by adding 5 μl of ADP-Glo™ reagent. After incubation at room temperature in the dark for 40 minutes, 10 μl of kinase detection reagent was added per well, and the mixture was incubated for 10 minutes. […] Positive and negative controls were performed in 0.5% DMSO in the presence and absence of LRRK2 kinases. Curve fitting and data presentations were performed using GraphPad Prism version 5.0 (GraphPad Software, Inc.).

T8 sequence (Q16659 whole entry): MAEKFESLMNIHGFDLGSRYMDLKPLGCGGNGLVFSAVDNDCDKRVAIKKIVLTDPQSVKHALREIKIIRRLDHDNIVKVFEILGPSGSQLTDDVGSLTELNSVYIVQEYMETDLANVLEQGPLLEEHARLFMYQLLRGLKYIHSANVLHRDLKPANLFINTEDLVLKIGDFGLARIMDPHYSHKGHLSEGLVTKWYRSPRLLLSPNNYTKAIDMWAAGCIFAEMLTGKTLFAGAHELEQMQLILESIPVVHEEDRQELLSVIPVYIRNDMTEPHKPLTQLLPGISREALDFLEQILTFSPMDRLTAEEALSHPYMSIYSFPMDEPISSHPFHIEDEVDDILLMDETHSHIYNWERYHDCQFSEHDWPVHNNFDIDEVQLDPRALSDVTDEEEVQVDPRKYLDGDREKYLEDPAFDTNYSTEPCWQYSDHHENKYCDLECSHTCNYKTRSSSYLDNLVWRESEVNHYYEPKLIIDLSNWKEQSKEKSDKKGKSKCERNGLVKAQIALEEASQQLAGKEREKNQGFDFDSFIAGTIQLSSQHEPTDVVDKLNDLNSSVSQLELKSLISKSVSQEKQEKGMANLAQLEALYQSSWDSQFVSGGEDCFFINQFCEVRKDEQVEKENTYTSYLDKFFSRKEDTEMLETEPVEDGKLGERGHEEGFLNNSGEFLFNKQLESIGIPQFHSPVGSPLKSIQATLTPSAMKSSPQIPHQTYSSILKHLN
T6 sequence (P28482 whole entry): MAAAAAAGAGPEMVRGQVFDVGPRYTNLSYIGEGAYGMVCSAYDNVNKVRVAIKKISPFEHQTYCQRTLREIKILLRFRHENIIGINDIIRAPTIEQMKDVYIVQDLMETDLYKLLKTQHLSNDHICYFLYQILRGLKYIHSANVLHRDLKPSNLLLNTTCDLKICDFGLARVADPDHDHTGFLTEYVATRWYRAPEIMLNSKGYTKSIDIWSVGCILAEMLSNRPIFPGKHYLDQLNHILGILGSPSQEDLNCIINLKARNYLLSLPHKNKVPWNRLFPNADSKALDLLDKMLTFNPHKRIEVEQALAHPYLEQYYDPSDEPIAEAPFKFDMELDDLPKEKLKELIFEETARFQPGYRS
T9 sequence (Q9Y3S1 whole entry): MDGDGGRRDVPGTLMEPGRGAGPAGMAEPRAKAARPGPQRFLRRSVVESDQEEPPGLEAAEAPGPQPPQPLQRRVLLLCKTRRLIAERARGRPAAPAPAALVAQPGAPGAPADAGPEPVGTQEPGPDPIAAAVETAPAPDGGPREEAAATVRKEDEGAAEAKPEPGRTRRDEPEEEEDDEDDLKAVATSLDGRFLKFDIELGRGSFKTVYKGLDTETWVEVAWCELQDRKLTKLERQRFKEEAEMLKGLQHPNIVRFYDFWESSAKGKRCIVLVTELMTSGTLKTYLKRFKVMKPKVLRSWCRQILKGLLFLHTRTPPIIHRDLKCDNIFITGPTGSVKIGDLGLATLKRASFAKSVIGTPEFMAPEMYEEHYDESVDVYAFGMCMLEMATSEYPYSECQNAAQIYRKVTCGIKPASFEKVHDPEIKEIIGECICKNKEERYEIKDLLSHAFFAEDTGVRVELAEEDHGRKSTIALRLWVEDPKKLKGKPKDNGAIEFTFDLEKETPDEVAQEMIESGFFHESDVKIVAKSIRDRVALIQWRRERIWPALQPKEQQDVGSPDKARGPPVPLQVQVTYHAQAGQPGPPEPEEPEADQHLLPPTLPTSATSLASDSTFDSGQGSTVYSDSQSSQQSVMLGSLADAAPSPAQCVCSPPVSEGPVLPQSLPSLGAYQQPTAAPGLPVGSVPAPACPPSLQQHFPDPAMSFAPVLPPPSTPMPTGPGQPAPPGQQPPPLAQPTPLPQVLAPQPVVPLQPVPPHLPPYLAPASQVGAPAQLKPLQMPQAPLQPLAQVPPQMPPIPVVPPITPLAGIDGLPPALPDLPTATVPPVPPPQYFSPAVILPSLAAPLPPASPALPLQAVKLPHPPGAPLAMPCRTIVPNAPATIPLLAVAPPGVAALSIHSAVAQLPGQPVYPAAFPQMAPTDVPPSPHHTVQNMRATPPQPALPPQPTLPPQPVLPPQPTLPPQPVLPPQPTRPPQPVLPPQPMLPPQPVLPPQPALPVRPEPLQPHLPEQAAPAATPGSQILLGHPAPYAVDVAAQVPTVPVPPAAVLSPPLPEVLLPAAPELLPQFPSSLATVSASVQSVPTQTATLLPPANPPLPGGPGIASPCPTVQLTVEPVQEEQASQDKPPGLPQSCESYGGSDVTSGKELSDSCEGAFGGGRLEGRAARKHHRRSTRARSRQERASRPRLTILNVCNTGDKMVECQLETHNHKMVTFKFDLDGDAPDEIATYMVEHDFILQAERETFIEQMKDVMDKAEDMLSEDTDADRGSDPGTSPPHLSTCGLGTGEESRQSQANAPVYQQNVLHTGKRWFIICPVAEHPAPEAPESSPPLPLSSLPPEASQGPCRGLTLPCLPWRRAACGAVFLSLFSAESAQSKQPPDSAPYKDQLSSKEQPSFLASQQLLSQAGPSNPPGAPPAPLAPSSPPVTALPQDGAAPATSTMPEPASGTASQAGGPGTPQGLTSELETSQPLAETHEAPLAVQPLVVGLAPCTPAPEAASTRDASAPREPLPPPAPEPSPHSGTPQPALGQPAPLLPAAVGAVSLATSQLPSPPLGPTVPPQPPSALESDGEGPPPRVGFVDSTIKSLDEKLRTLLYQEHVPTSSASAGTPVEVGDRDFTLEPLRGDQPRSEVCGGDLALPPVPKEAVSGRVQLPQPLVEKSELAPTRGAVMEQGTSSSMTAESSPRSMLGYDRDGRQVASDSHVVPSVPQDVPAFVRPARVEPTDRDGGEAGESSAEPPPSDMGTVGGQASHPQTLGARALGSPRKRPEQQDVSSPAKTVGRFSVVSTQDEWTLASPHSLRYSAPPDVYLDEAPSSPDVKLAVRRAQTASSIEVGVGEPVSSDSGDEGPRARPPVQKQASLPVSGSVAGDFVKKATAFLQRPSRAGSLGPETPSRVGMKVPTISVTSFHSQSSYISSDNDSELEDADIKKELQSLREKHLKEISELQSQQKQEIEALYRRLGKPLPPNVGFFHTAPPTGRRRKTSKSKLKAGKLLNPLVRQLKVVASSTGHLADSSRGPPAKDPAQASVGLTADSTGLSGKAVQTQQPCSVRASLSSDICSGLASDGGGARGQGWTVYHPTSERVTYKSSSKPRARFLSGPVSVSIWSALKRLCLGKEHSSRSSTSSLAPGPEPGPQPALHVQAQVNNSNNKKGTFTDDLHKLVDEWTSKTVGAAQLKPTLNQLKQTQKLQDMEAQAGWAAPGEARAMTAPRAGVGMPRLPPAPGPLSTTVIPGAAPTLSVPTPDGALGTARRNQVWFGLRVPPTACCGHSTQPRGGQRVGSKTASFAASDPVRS
T2 sequence (P00533 25-1210 L858R): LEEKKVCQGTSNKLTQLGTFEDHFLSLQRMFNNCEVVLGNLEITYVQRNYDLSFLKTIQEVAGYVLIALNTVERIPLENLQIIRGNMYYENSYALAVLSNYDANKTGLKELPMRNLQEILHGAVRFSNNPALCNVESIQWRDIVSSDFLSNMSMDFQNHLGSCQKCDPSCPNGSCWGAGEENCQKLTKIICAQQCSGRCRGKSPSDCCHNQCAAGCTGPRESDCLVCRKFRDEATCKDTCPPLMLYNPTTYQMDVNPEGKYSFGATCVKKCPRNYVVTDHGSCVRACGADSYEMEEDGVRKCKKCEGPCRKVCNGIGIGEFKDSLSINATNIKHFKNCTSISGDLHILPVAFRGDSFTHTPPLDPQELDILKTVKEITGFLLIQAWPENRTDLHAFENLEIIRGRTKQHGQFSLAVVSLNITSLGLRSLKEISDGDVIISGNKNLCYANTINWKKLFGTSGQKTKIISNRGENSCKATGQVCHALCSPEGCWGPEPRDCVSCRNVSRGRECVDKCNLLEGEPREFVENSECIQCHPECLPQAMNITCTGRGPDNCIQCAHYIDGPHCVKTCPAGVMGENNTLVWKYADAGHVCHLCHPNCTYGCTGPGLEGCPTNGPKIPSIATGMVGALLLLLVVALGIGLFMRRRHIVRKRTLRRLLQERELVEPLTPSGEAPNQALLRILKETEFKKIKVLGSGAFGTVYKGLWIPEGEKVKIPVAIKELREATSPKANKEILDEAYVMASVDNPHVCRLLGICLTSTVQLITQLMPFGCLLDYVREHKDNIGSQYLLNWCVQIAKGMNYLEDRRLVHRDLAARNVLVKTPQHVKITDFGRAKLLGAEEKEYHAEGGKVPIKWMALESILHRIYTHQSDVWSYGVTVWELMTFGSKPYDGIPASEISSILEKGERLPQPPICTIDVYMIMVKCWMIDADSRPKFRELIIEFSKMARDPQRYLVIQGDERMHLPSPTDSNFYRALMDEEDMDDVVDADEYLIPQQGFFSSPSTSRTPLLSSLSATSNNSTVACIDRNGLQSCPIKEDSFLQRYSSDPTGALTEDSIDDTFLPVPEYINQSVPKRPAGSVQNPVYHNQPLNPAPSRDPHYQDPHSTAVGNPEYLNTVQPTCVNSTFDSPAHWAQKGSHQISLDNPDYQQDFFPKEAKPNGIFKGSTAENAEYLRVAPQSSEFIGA
T3 sequence (P09769 whole entry): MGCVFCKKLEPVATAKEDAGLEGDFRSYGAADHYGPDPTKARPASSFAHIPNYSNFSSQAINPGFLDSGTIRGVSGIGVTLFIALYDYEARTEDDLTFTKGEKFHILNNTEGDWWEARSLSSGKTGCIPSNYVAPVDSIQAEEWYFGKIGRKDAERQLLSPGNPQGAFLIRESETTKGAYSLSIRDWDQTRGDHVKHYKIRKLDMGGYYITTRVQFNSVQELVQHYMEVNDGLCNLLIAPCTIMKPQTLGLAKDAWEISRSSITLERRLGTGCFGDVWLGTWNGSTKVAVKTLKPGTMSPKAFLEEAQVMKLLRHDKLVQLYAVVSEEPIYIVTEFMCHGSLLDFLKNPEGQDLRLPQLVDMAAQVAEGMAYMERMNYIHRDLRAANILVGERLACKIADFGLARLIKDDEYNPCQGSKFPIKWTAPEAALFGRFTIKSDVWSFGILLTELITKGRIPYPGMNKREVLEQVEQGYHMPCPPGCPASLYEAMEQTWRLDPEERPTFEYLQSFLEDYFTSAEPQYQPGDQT

**Q.** With `CNc1nc(Nc2ccc(C(=O)N3CCC(N4CCOCC4)CC3)c3c2OCO3)nc2[nH]cc(Cl)c12` [Compound 75, (7-((5-chloro-4-(methylamino)-7H-pyrrolo[2,3-d]pyrimidin-2-yl)amino)benzo[d][1,3]dioxol-4-yl)(4-morpholinopiperidin-1-yl)methanone] as the molecule, how does the remaining binding at 1 µM [1] read?
**A.** The remaining binding at 1 µM was 3.9%.

**Q.** And the remaining binding at 1 µM [2]?
**A.** Its remaining binding at 1 µM is 100%.

**Q.** And the remaining binding at 1 µM [3]?
**A.** Its remaining binding at 1 µM is 100%.

**Q.** What about the remaining binding at 1 µM [4] of the same molecule?
**A.** The remaining binding at 1 µM was 97%.

**Q.** What about the remaining binding at 1 µM [5] of the same molecule?
**A.** Its remaining binding at 1 µM is 100%.

**Q.** And the remaining binding at 1 µM [6]?
**A.** The remaining binding at 1 µM was 100%.

**Q.** What about the remaining binding at 1 µM [7] of the same molecule?
**A.** Its remaining binding at 1 µM is 1.8%.

**Q.** And the remaining binding at 1 µM [8]?
**A.** The remaining binding at 1 µM was 91%.

**Q.** What about the remaining binding at 1 µM [9] of the same molecule?
**A.** Its remaining binding at 1 µM is 69%.

**Q.** What about the IC50 [10] of the same molecule?
**A.** Its IC50 is < 10 nM.

**Q.** What does the source list for `CNc1nc(Nc2ccc(S(=O)(=O)N3CCC(N4CCOCC4)CC3)cc2OC)nc2[nH]cc(Cl)c12` [Compound 12, 5-chloro-N2-(2-methoxy-4-((4-morpholinopiperidin-1-yl)sulfonyl)phenyl)-N4-methyl-7H-pyrrolo[2,3-d]pyrimidine-2,4-diamine]?
**A.** remaining binding at 1 µM [1]: 74%; remaining binding at 1 µM [2]: 100%; remaining binding at 1 µM [3]: 100%; remaining binding at 1 µM [4]: 100%; remaining binding at 1 µM [5]: 100%; remaining binding at 1 µM [6]: 100%; remaining binding at 1 µM [7]: 72%; remaining binding at 1 µM [8]: 100%; remaining binding at 1 µM [9]: 62%; IC50 [10]: < 10 nM

**Q.** With `CNc1nc(Nc2ccc(P3(=O)CCN(C4CCOCC4)CC3)cc2OC)nc2[nH]cc(Cl)c12` [Compound 77, 4-(4-((5-chloro-4-(methylamino)-7H-pyrrolo[2,3-d]pyrimidin-2-yl)amino)-3-methoxyphenyl)-1-(tetrahydro-2H-pyran-4-yl)-1,4-azaphosphinane 4-oxide] as the molecule, how does the remaining binding at 1 µM [1] read?
**A.** The remaining binding at 1 µM was 39%.

**Q.** And the remaining binding at 1 µM [2]?
**A.** Its remaining binding at 1 µM is 76%.

**Q.** What about the remaining binding at 1 µM [3] of the same molecule?
**A.** The remaining binding at 1 µM was 100%.

**Q.** What about the remaining binding at 1 µM [4] of the same molecule?
**A.** The remaining binding at 1 µM was 100%.

**Q.** What about the remaining binding at 1 µM [5] of the same molecule?
**A.** Its remaining binding at 1 µM is 100%.

**Q.** What about the remaining binding at 1 µM [6] of the same molecule?
**A.** Its remaining binding at 1 µM is 100%.

**Q.** And the remaining binding at 1 µM [7]?
**A.** The remaining binding at 1 µM was 9.7%.

**Q.** And the remaining binding at 1 µM [8]?
**A.** Its remaining binding at 1 µM is 99%.

**Q.** And the remaining binding at 1 µM [9]?
**A.** The remaining binding at 1 µM was 71%.

**Q.** What about the IC50 [10] of the same molecule?
**A.** The IC50 was < 10 nM.
